# Laboratory results published in patent publication US8383136B2, “Micelle encapsulation of therapeutic agents” (Wisconsin Alumni Research Foundation, priority 2009, dated 2013).
# “And” between values parts separate entries of the source, which are not always exact repeats. Identical values can stand only once. “Also recorded” adds a separate entry of the source.
# Key:
# [1] = Dynamic light scattering size of SDM and MDM; format: physicochemical; settings: DLS, drug-loaded SDM or MDM
# Procedure: The drug-loaded micellar solutions were diluted 20 times with DD H2O and the samples was equilibrated for 2 min at 25° C. before the measurements. […] The hydrodynamic diameter of PEG-b-PLA micelles was calculated based on the Stokes-Einstein equation. Correlation function was curve fitted by cumulant method to calculate mean size and polydispersion index (PDI). All measurements were repeated three times, and volume-weighted particle sizes were presented as the average diameter with standard deviation.
# [2] = test system: 4T1 murine breast cancer cells; test: In vitro cytotoxicity, resazurin assay, and combination index; format: cell-based; settings: drug(s) in SDM or MDM, 72 hours, unit inferred, PTX/17-AAG 4.7:1, RAP/17-AAG 1:1, RAP/PTX 1:1, RAP/PTX/17-AAG 1:5:1, read-out: IC50
# Procedure: MCF-7 human breast cancer cells were cultured in DMEM medium while 4T1 murine breast cancer cells, A549 human non-small cell lung cancer cells, and LS180 human colon cancer cells were cultured in RPMI1640 medium. Both media were supplemented with 10% fetal bovine serum (FBS) with antibiotics under 5% CO2 and 37° C. in an incubator. […] Free drugs were dissolved in DMSO, and drug-loaded PEG-b-PLA micelles were in deionized water. […] […] The metabolic conversion of resazurin dye by each viable cancer cell was quantified using a fluorescence cell plate reader (SpectraMax M2, Molecular Devices, USA) to estimate cell viability. […] IC50 values of free drugs and drug-loaded PEG-b-PLA micelles were calculated based on median-effect equation using Compusyn software (ver. 1.0).
# (§1) CI values were obtained at IC50 values for 2- or 3-drug combinations. CI<1, C=1, and CI>1 were used as criteria to determine whether 2- or 3-drug combinations are synergistic, additive, and antagonistic, respectively (FIGS. 13-20).
# [3] = In vitro drug release from PEG-b-PLA micelles (dialysis method); format: physicochemical; settings: SDM, dialysis; listed as PTX
# Procedure: (§2) SDMs or MDMs were prepared and characterized as described above. Post micelle preparation each sample was diluted with DD H2O, to yield about 0.10 mg/mL of each drug. A volume of 2.5 mL of the prepared sample was loaded into a 3 mL Slide-A-Lyzer® (Thermo Scientific Inc.) dialysis cassette with a MWCO of 20,000 g/mol. Four cassettes were used in each experiment. The cassettes were placed in 2.0 L of buffer which was changed every 3 hours to ensure sink conditions for drug(s) and polymer. A sample of 100 μL was drawn from each cassette at various sampling time intervals and then replaced with 100 μL of fresh buffer. […] The amount of drug(s) in each sample was quantified by HPLC as described above.
# Statistical analysis was performed using one-way ANOVA at 5% significance level combined with Tukey's Multiple Comparison Test or t-test at 5% significance level. Curve-fitting analysis using one phase exponential association was used to calculate the half-life (t1/2) of drug in in vitro drug release experiments. Both analyses were performed using GraphPad Prism version 5.00 for Windows, Graph-Pad Software, San Diego Calif. USA, www.graphpad.com.
# as §2, with “Post-micelle preparation,” for “Post micelle preparation”, “yield samples of” for “yield”, “reverse phase HPLC.” for “HPLC as described above.”
# [4] = test system: MCF-7 human breast cancer cells; test: In vitro cytotoxicity, resazurin assay, and combination index; format: cell-based; settings: Homo sapiens, MCF7, 72 h; read-out: IC50
# Procedure: (§3) MCF-7 human breast cancer cells were cultured in DMEM medium while 4T1 murine breast cancer cells, A549 human non-small cell lung cancer cells, and LS180 human colon cancer cells were cultured in RPMI1640 medium. Both media were supplemented with 10% fetal bovine serum (FBS) with antibiotics under 5% CO2 and 37° C. in an incubator. […] Free drugs were dissolved in DMSO, and drug-loaded PEG-b-PLA micelles were in deionized water. The samples were diluted with cell culture media to make 0.10, 1.0, 10, 100 and 1000 nM in 96 well plates. […] The metabolic conversion of resazurin dye by each viable cancer cell was quantified using a fluorescence cell plate reader (SpectraMax M2, Molecular Devices, USA) to estimate cell viability. […] IC50 values of free drugs and drug-loaded PEG-b-PLA micelles were calculated based on median-effect equation using Compusyn software (ver. 1.0).
# as §1
# [5] = test system: A549 human non-small cell lung cancer cells; test: as above; format: cell-based; settings: drug(s) in SDM or MDM, 72 hours, unit inferred, PTX/17-AAG 4.7:1, RAP/17-AAG 1:1, RAP/PTX 1:1, RAP/PTX/17-AAG 1:5:1, read-out: IC50
# Procedure: as §3, §1
# [6] = test system: H-358 human non-small-cell lung cancer xenografts; settings: combined with 17-AAG; cited from earlier work
# [7] = Physical stability / drug loss from PEG-b-PLA micelles after 24 hours (turbidity, HPLC); format: physicochemical
# Procedure: Turbidity measurements were used to evaluate the physical stability of drug-loaded PEG-b-PLA micelles. A CARY 50 BIO UV-Visible spectrophotometer equipped with dip probe was used to measure turbidity. Micellar solutions were diluted six times, for a final concentration of PEG-b-PLA of 5 mg/mL, with DD H2O and filtered through 0.45 μm filter. […] Each measurement was performed in triplicate.
# [8] = Drug solubilization by PEG-b-PLA micelles (drug level in water, reverse phase HPLC); settings: analyte paclitaxel, SDM or MDM, PEG-b-PLA (4.2K:1.9K) micelles
# Procedure: The drug-polymer mixture was dissolved in 0.50 mL acetonitrile (ACN). The ACN was removed at 60° C. under reduced pressure on a rotary evaporator resulting in the formation of a homogenous film, The drug-polymer film was rehydrated with 0.50 mL of DD H2O at 60° C. with gentle agitation resulting in a clear solution of drug-loaded PEG-b-PLA micelles. The micellar solution was filtered using a 0.45 μm filter, and the micelles were characterized in terms of size and loading by Dynamic Light Scattering (DLS) and HPLC respectively.
# MDMS were prepared similarly to the SDMs by mixing 2.0 mg of each drug with 15 mg of the polymer. The procedure for the preparation and characterization of these micelles was identical to the SDMs.
# The content of drug loaded in PEG-b-PLA micelles was quantified by reverse phase HPLC. The HPLC system used for quantifying was a Shimadzu prominence HPLC system (Shimadzu, JP), consisting of a LC-20AT pump, SIL-20AC HT autosampler, CTO-20AC column oven and a SPD-M20A diode array detector. A sample of 10 μL was injected into a Zorbax SB-C8 Rapid Resolution cartridge (4.6×75 mm, 3.5 micron, Agilent). The column temperature was maintained at 40° C. throughout the run. Two HPLC methods were developed to quantify the amount of the drug(s) loaded in PEG-b-PLA micelles.
# The mobile phase was an isocratic mixture of 45% ACN and 54% aqueous phase containing 0.1% phosphoric acid and 1% methanol in DD H2O.
# The mobile phase was a gradient mixture of ACN and aqueous phase containing 0.1% phosphoric acid and 1% methanol in DD H2O. […] With both HPLC methods samples were injected twice and reproducible and rapid separation of the drugs was achieved.
# Mn of PEG and PLA of PEG-b-PLA was 4,200 and 1,900 g/mol, respectively (APC Inc., UK). ACN was removed by heating at 60° C. and reduced pressure. The resultant dry polymer film containing anti-cancer agent(s) was dissolved by addition of water (0.50 mL) at 60° C. with gentle agitation.
# The resultant dry PEG-b-PLA film containing drugs was dissolved by the addition of water (0.50 mL) at 60° C. with gentle agitation.
# [9] = % drug loading of PEG-b-PLA micelles (wt drug(s)/wt polymer); format: physicochemical; settings: all drugs of the SDM or MDM together, PEG-b-PLA (4.2K:1.9K) micelles
# Procedure: Drug(s) to polymer w/w percent was calculated for SDM and MDM. PEG-b-PLA micelles were freeze dried, weighed and the amount of drug(s) in the freeze dried sample was quantified by HPLC. The drug w/w percent was calculated as the mass of the drug(s) to the mass of polymer in the freeze dried sample multiplied by 100.
# [10] = Acute toxicity experiments in FVB female albino mice; settings: PEG-b-PLA micelles, 3 IV injections days 0, 4, 8; paclitaxel 60, 17-AAG 60, rapamycin 30 mg/kg
# Procedure: Briefly, acute toxicity experiments were carried out in FVB female albino mice with 3 IV injections on days 0, 4, and 8, measuring body weights and monitoring survival over 12 days (FIG. 21).
# [11] = without micelles; cited from earlier work
# [12] = analyte paclitaxel, PEG-b-PLA micelles
compound,measurement,setting,value
CC(=O)O[C@H]1C(=O)[C@@]2(C)[C@H]([C@H](OC(=O)c3ccccc3)[C@]3(O)C[C@H](OC(=O)[C@H](O)[C@@H](NC(=O)c4ccccc4)c4ccccc4)C(C)=C1C3(C)C)[C@]1(OC(C)=O)CO[C@@H]1C[C@@H]2O [Paclitaxel],PEG-b-PLA micelle diameter,[1],38.8 ± 0.6 nm
same,IC50,[2],11200 ± 4160 nM
same,behaviour of PTX during the release test,[3],Rapid precipitation; also recorded: precipitated during release
same,IC50,[4],226 ± 32 nM
same,IC50,[5],397 ± 59 nM
same,enhancement of PTX cytotoxicity,[6],5-22 fold
same,drug precipitated at 24 hours,"[7]; SDM, HPLC data",approximately 84%
same,% w/w drug(s) left @ 24 hr,[7]; [12],16.2 ± 1.0 % w/w
same,initial drug level in water,[7]; [12],3.54 ± 0.32 mg/mL
same,drug level @ 24 hr in water,"[7]; analyte paclitaxel, PEG-b-PLA micelles, 24 hr",570 ± 70 µg/mL
same,time the micelles were physically stable,"[7]; turbidity, ambient temperature",approximately 6 hours
same,drug level in water,[8],3540 ± 320 µg/mL
same,drug level in water,[8]; listed as PTX,3500 µg/mL
same,% drug loading (wt. drug(s)/wt. polymer),[9],11.8 ± 1.1% and 10.3 ± 0.9%
same,% drug loading (wt. drug(s)/wt. polymer),[9]; listed as PTX,10.3%
same,acute toxicity,[10],low
same,solubility of paclitaxel in water,[11],approximately 1 μg/mL
